Experimental data from patent publication US20100087388A1, “ODCASE INHIBITORS AS ANTI-VIRALS AND ANTIBIOTICS” (priority 2005, published 2010).

Assays:
[1] = test system: human primary blood cells
[2] = target: T1, Staphylococcus aureus ODCase (Staphylococcus aureus, UniProt Q6GHN1); experiment: ODCase enzyme inhibition assay; assay type: biochemical; details: read-out: K1 against Staphylococcus aureus ODCase
T1 construct: made in house; host or cells: E. coli BL21(DE3), pET24a(+)
Source text: ODCase gene, pyrF, was obtained from the complete genomes of the respective bacteria through ATCC. The pyrF gene was amplified from the genome of S. aureus M252 using two synthetic primers: Dir 5′-[…] [SEQ ID NO: 1] and Rev 5′-[…] [SEQ ID NO: 2].
The pET expression system was used to express ODCase from pyrF. The cloning strategy can use any generic strategies, herein a double digestion of pET24a(+) expression vector and pyrF separately using EcoRI and HindIII restriction enzyme was used to produce digestion products with sticky ends. […] The digested vector was separated from the restriction enzyme by gel purification by QIAquick Gel Extraction Kit Protocol using microcentrifuge and quantified on 1% agarose gel with 2-log ladder as standard. In addition to quantifying DNA, 1% agarose gel was run with undigested vector to confirm that the vector was digested.
pyrF from the PCR mixture was also double digested in 50 uL solution using the same conditions described above. The separation of the pyrF from restriction enzymes was carried out by QIAquick Gel Extraction Kit Protocol using Microcentrifuge, and the collected gene was quantified on 1% agarose gel. […]

T1 sequence (Q6GHN1 whole entry): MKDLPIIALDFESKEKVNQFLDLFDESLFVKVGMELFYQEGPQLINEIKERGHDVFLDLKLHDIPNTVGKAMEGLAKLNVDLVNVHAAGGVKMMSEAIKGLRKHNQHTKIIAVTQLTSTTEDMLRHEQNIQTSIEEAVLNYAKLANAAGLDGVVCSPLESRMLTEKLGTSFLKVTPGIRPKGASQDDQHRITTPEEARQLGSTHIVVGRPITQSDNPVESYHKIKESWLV

SMILES	Effect on human primary blood cells (indications of toxicity) [1]	Ki [2]
O=c1cc(I)n([C@@H]2O[C@H](CO)[C@@H](O)[C@H]2O)c(=O)[nH]1 [Ia, 6-Iodo-uridine]	did not inhibit primary cells significantly	–
O=c1cc(I)n([C@@H]2O[C@H](COP(=O)(O)O)[C@@H](O)[C@H]2O)c(=O)[nH]1 [Ib, 6-Iodo uridine-5′-O-monophosphate]	–	< 50 nM
